Results on 21 compounds are retold here after patent US8680159B2, “Bradykinin 1 receptor modulating compounds” (Gruenenthal GmbH, priority 2010, dated 2014).

The target of assay [1] is T1, human B1R receptor (CHO K1 cells stably transfected with the human B1R gene) (Homo sapiens, UniProt P46663).
T1 construct: expressed in transfected cells; host or cells: CHO K1 cells (Chinese hamster ovary), stably transfected
T1 sequence (P46663 1-353): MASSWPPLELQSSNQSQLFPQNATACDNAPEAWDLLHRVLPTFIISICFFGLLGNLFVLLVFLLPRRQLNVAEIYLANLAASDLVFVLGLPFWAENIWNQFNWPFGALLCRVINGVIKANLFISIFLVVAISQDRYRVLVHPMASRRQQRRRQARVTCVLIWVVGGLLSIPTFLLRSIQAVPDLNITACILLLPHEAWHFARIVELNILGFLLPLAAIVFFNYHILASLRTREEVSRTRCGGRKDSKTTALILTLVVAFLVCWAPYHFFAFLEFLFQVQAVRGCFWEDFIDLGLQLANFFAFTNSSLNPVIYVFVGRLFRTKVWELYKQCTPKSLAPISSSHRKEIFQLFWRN
In words: Functional study on the bradykinin receptor 1 (B1R), Ca2+ fluorescence (Fluo-4) FLIPR/Novostar assay, hB1R cells. The assay is classed as cell-based. In short, it runs like this:
(§1)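 Test compounds (10 μM) were added first and the Ca2+ rise was scored as % activation against Lys-Des-Arg9-bradykinin (≥50 nM, human) or Des-Arg9-bradykinin (≥1 μM, rat). After 6-20 min, the matching agonist was given at its EC80, and % inhibition relative to maximal achievable inhibition was calculated.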

Assay [2] deals with T2, B1R receptor of the rat (CHO K1 cells stably transfected with the B1R gene of the rat) (Rattus norvegicus, UniProt P97583).
T2 construct: expressed in transfected cells; host or cells: CHO K1 cells (Chinese hamster ovary), stably transfected
T2 sequence (P97583 1-337): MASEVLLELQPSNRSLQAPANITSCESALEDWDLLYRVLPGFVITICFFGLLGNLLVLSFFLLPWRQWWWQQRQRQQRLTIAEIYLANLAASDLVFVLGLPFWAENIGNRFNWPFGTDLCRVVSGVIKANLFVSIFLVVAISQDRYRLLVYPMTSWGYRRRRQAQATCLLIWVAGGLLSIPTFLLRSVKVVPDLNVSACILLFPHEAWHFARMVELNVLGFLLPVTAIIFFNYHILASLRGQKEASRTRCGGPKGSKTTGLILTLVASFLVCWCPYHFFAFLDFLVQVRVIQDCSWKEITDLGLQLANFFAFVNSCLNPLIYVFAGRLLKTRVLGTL
The assay can be described thus: Functional study on the bradykinin receptor 1 (B1R), Ca2+ fluorescence (Fluo-4) FLIPR/Novostar assay, rB1R cells. The assay is classed as cell-based. To be noted: CHO-K1, 10 μM. In short, it runs like this: as §1

Setting [3] is: CHO-K1, read-out: % Inhibition (h-B1R) at 10 μM.
Setting [4] is: read-out: % Inhibition (r-B1R) at 10 μM.
Setting [5] is: CHO-K1, read-out: % inhibition (human B1R) at 10 μM.
Where [6] appears, read: read-out: % inhibition (rat B1R) at 10 μM.

Like-named read-outs stand apart in the source and are kept apart here.

As usually defined, the inhibition is the drop in the measured response relative to a control, in per cent. Regarding `CN(C(=O)c1ccc2c(c1)C(NC(=O)CCC1CCCC1)CCO2)C1CCN(c2ccncc2)CC1` (stereo not shown) [CC_H-49, 4-(3-Cyclopentyl-propanoylamino)-N-methyl-N-(1-pyridin-4-yl-piperidin-4-yl)-3,4-dihydro-2H-chromene-6-carboxylic acid amide], the figures for the inhibition at 10 µM in assay [1] (setting [3]) and in assay [2] (setting [4]) were 99% and 102%, respectively. On the same counts, the results for `CN(C(=O)c1ccc2c(c1)C(NC(=O)c1c(Cl)cccc1C(F)(F)F)CCC2)C1CCN(c2ccncc2)CC1` (stereo not shown) [CC_H-11, 8-[[2-Chloro-6-(trifluoromethyl)-benzoyl]amino]-N-methyl-N-(1-pyridin-4-yl-piperidin-4-yl)-5,6,7,8-tetrahydro-naphthalene-2-carboxylic acid amide] are 99% and 103%. With `CN(C(=O)c1ccc2c(c1)C(NC(=O)c1cncnc1)CC2)C1CCN(c2ccncc2)CC1` (stereo not shown) [CC_H-48, N-[6-[Methyl-(1-pyridin-4-yl-piperidin-4-yl)-carbamoyl]-2,3-dihydro-1H-inden-1-yl]-pyrimidine-5-carboxylic acid amide], the inhibition at 10 µM in assay [1] (setting [3]) was determined as 96%; in assay [2] (setting [4]), 78%. As to `O=C(N[C@H]1CCN(C2CCN(C3CC3)CC2)C1)c1ccc2c(c1)[C@H](NC(=O)c1ccccc1Cl)CC2` [Example H-09, (3R)-3-[(2-Chloro-benzoyl)amino]-N-[(3S)-1-(1-cyclopropyl-piperidin-4-yl)-pyrrolidin-3-yl]-2,3-dihydro-1H-indene-5-carboxylic acid amide], the inhibition at 10 µM is 38% in assay [1] (setting [5]) and 83% in assay [2] (setting [6]). On the same counts, the results for `Cc1cc(N2CCC(N(C)C(=O)c3ccc4c(c3)[C@H](NC(=O)CCC3CCCC3)CC4)CC2)nc(C)n1` [Example H-94, (3R)-3-(3-Cyclopentyl-propanoylamino)-N-[1-(2,6-dimethyl-pyrimidin-4-yl)-piperidin-4-yl]-N-methyl-2,3-dihydro-1H-indene-5-carboxylic acid amide] are 100% and 99%. On the same counts, the results for `COc1ccc(N2CCC(N(C)C(=O)c3ccc4c(c3)[C@H](NC(=O)c3ccccc3Cl)CC4)CC2)cc1` [Example H-50, (3R)-3-[(2-Chloro-benzoyl)amino]-N-[1-(4-methoxyphenyl)-piperidin-4-yl]-N-methyl-2,3-dihydro-1H-indene-5-carboxylic acid amide] are 23% and 86%. On the same counts, the results for `Cc1cc(N2CCC(N(C)C(=O)c3ccc4c(c3)[C@H](NC(=O)c3cccnc3C(F)(F)F)CC4)CC2)ccn1` [Example H-92, N-[(1R)-6-[Methyl-[1-(2-methyl-pyridin-4-yl)-piperidin-4-yl]-carbamoyl]-2,3-dihydro-1H-inden-1-yl]-2-(trifluoromethyl)-pyridine-3-carboxylic acid amide] are 100% and 106%.

Turning to `Cc1nccc(N2CCC(N(C)C(=O)c3ccc4c(c3)[C@H](NC(=O)c3ccccc3Cl)CC4)CC2)n1` [Example H-122, (3R)-3-[(2-Chloro-benzoyl)amino]-N-methyl-N-[1-(2-methyl-pyrimidin-4-yl)-piperidin-4-yl]-2,3-dihydro-1H-indene-5-carboxylic acid amide], the inhibition at 10 µM in assay [1] (setting [5]) is 100%; in assay [2] (setting [6]), 103%.

In the case of `CN(C(=O)c1ccc2c(c1)[C@H](NC(=O)C(C)(C)C)CC2)C1CCN(c2ccncc2)CC1` [Example H-19, (3R)-3-(2,2-Dimethyl-propanoylamino)-N-methyl-N-(1-pyridin-4-yl-piperidin-4-yl)-2,3-dihydro-1H-indene-5-carboxylic acid amide], the inhibition at 10 µM in assay [1] (setting [5]) was 98%; in assay [2] (setting [6]), 103%. As to `O=C(NCC1CCCN(c2ccncc2)C1)c1ccc2c(c1)[C@H](NC(=O)c1ccccc1Cl)CC2` (stereo partly drawn) [Example H-10, (3R)-3-[(2-Chloro-benzoyl)amino]-N-[(1-pyridin-4-yl-piperidin-3-yl)-methyl]-2,3-dihydro-1H-indene-5-carboxylic acid amide], the inhibition at 10 µM in assay [1] (setting [5]) stood at 18%; in assay [2] (setting [6]), 97%. Take `Cc1cc(N2CCC(N(C)C(=O)c3ccc4c(c3)[C@H](N(C(=O)c3cc(F)ccc3Cl)C(C)C)CC4)CC2)nc(C)n1` [Example H-212, (3R)-3-[(2-Chloro-5-fluoro-benzoyl)-isopropyl-amino]-N-[1-(2,6-dimethyl-pyrimidin-4-yl)-piperidin-4-yl]-N-methyl-2,3-dihydro-1H-indene-5-carboxylic acid amide]: the inhibition at 10 µM in assay [1] (setting [5]) is 82%. `Cc1cc(N2CCC(N(C)C(=O)c3ccc4c(c3)[C@H](N(C(=O)c3cccnc3C(F)(F)F)C(C)C)CC4)CC2)nc(C)n1` [Example H-207]: the inhibition at 10 µM in assay [1] (setting [5]) is 44%. Take `CN(C(=O)c1ccc2c(c1)C(NC(=O)C(C)(C)c1ccccc1Cl)CCO2)C1CCN(c2ccncc2)CC1` (stereo not shown) [CC_H-97, 4-[[2-(2-Chlorophenyl)-2-methyl-propanoyl]amino]-N-methyl-N-(1-pyridin-4-yl-piperidin-4-yl)-3,4-dihydro-2H-chromene-6-carboxylic acid amide]: the inhibition at 10 µM in assay [1] (setting [3]) is 92%. `CCN(C(=O)c1cccc(F)c1Cl)[C@@H]1CCc2ccc(C(=O)N(C)C3CCN(c4ccncc4)CC3)cc21` [Example H-203, (3R)-3-[(2-Chloro-3-fluoro-benzoyl)-ethyl-amino]-N-methyl-N-(1-pyridin-4-yl-piperidin-4-yl)-2,3-dihydro-1H-indene-5-carboxylic acid amide]: the inhibition at 10 µM in assay [1] (setting [5]) came out at 100%. The same measure, in the same setting: as for `CNc1nccc(N2CCC(N(C)C(=O)c3ccc4c(c3)[C@H](NC(=O)c3ccccc3Cl)CC4)CC2)n1` [Example H-214, (3R)-3-[(2-Chloro-benzoyl)amino]-N-methyl-N-[1-(2-methylamino-pyrimidin-4-yl)-piperidin-4-yl]-2,3-dihydro-1H-indene-5-carboxylic acid amide], the figure is 100%; as for `CN(C(=O)c1ccc2c(c1)[C@H](NC(=O)c1ccccc1Cl)CC2)C1CCN(c2cc[nH]c(=O)c2)CC1` [Example H-219, (3R)-3-[(2-Chloro-benzoyl)amino]-N-methyl-N-[1-(2-oxo-1H-pyridin-4-yl)-piperidin-4-yl]-2,3-dihydro-1H-indene-5-carboxylic acid amide], 79%. In the case of `Cc1cc(N2CCC(N(C)C(=O)c3ccc4c(c3)C(N(C)S(=O)(=O)Cc3ccccc3C(F)(F)F)CC4)CC2)cc(C)n1` (stereo not shown) [CC_H-129, N-[1-(2,6-Dimethyl-pyridin-4-yl)-piperidin-4-yl]-N-methyl-3-[methyl-[[2-(trifluoromethyl)-phenyl]-methylsulfonyl]-amino]-2,3-dihydro-1H-indene-5-carboxylic acid amide], in assay [1] (setting [3]), the inhibition at 10 µM turned out to be 100%. As for `Cc1cc(N2CCC(N(C)C(=O)c3ccc4c(c3)C(NS(=O)(=O)c3c(Cl)cccc3C(F)(F)F)CC4)CC2)cc(C)n1` (stereo not shown) [CC_H-111, 3-[[[2-Chloro-6-(trifluoromethyl)-phenyl]sulfonyl]amino]-N-[1-(2,6-dimethyl-pyridin-4-yl)-piperidin-4-yl]-N-methyl-2,3-dihydro-1H-indene-5-carboxylic acid amide], the inhibition at 10 µM in assay [1] (setting [3]) was determined as 100%. On the same count and under the same terms, the same measure for `CC(C)(C(=O)NC1CCc2ccc(C(=O)NCCC3CCN(c4ccncc4)CC3)cc21)c1ccccc1Cl` (stereo not shown) [CC_H-103, 3-[[2-(2-Chlorophenyl)-2-methyl-propanoyl]amino]-N-[2-(1-pyridin-4-yl-piperidin-4-yl)-ethyl]-2,3-dihydro-1H-indene-5-carboxylic acid amide]: 89%. As for `CCN(C(=O)c1cc(F)ccc1Cl)[C@@H]1CCc2ccc(C(=O)N(C)C3CCN(c4cc(C)nc(C)n4)CC3)cc21` [Example H-211, (3R)-3-[(2-Chloro-5-fluoro-benzoyl)-ethyl-amino]-N-[1-(2,6-dimethyl-pyrimidin-4-yl)-piperidin-4-yl]-N-meihyl-2,3-dihydro-1H-indene-5-carboxylic acid amide], the inhibition at 10 µM in assay [1] (setting [5]) was 99%. On the same count and under the same terms, the same measure for `CN(C)c1nccc(N2CCC(N(C)C(=O)c3ccc4c(c3)[C@H](NC(=O)C3CCCC3)CC4)CC2)n1` [Example H-228, (3R)-3-(Cyclopentanecarbonylamino)-N-[1-(2-dimethylamino-pyrimidin-4-yl)-piperidin-4-yl]-N-methyl-2,3-dihydro-1H-indene-5-carboxylic acid amide]: 96%.
